Data taken from patent US20250177396A1, “POLO-LIKE KINASE 4 (PLK4) INHIBITORS, PHARMACEUTICAL COMPOSITIONS, METHODS OF PREPARATION AND USES THEREOF” (Repare Therapeutics Inc., priority 2022, published 2025).

molecular target: T1, PLK4 (Homo sapiens, UniProt O00444); test: PLK4 NanoBRET target engagement assay; format: binding; settings: HEK293 T cells transfected with PLK4 NanoLuc fusion vector; K-5 tracer; 2 hrs incubation
T1 construct: expressed in transfected cells; host or cells: HEK293 T cells (ATCC CRL-3216)
T1 sequence (O00444 1-970): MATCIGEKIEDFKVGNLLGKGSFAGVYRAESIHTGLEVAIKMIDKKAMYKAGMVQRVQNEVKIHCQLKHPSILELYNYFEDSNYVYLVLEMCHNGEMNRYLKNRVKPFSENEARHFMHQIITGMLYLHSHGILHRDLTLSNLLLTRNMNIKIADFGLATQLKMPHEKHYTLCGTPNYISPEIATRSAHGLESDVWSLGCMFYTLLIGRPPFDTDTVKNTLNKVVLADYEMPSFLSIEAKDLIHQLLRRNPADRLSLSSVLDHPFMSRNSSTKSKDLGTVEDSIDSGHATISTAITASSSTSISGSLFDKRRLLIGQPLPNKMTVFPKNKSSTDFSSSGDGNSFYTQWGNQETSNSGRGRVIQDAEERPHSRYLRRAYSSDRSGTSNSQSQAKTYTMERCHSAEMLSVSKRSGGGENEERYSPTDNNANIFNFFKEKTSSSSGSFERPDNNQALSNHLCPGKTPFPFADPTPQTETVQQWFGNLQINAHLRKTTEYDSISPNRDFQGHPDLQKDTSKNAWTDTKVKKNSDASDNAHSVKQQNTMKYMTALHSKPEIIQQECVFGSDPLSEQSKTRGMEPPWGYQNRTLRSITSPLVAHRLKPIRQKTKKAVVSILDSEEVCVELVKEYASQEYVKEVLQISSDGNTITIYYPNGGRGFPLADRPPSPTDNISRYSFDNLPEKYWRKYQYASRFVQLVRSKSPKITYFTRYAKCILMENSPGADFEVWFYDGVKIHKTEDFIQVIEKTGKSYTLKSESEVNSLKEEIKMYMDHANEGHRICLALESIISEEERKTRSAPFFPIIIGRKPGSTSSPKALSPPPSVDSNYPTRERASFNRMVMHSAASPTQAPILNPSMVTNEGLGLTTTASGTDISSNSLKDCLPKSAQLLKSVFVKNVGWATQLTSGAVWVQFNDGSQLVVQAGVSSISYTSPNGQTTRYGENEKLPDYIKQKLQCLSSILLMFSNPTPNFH
Outline: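 HEK293T cells transiently expressing PLK4-NanoLuc, plated at 17000 cells/well with K-5 tracer and compound, incubated 2 h at 37 °C/5% CO2. After substrate/inhibitor mix, 610/450 nm emission ratio ×1000 gave mBRET; IC50 from 4-parameter fit.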

| Structure (SMILES) | IC50 [nM] |
| --- | --- |
| Cc1cc(Nc2nc(N(C)c3ccc(S(C)(=O)=O)cc3F)nc(N3CCCC(S(C)(=O)=O)C3)c2C2CC2)n[nH]1 (centres unmarked) [Compound 111, 5-cyclopropyl-N^2-(2-fluoro-4-(methylsulfonyl)phenyl)-N^2-methyl-N^4-(5-methyl-1H-pyrazol-3-yl)-6-(3-(methylsulfonyl)piperidin-1-yl)pyrimidine-2,4-diamine] | 43 |
| COc1c(Nc2cc(C)[nH]n2)nc(N(CCN(C)C)c2ccc(S(C)(=O)=O)cc2F)nc1-c1cnn(C)c1 [Compound 77] | 580 |
| COc1c(Nc2cc(C)[nH]n2)nc(N(C)c2ccc(CN(C)C(=O)c3ccccc3)cc2F)nc1-c1cnn(C)c1 [Compound 52] | 290 |
| Cc1cc(Nc2nc(N(C)c3c(F)cc(S(C)(=O)=O)cc3F)nc(-c3cn(C)nc3C(=O)N(C)C)c2C2CC2)n[nH]1 [Compound 252] | 48 |
| CC#Cc1cc(Nc2nc(N(C)c3c(F)cc(S(C)(=O)=O)cc3F)nc(-c3cnn(C)c3)c2C2CC2)n[nH]1 [Compound 345] | 33 |
| Cc1cc(Nc2nc(N(C)c3cc(F)c(S(C)(=O)=O)cc3F)nc(-c3cn4c(n3)CCC4)c2C2CC2)n[nH]1 [Compound 197] | 24 |
| COc1c(Nc2cc(C)[nH]n2)nc(Oc2ccc(S(C)(=O)=O)cc2Br)nc1-c1cnn(C)c1 [Compound 33] | 1100 |
| COc1c(Nc2cc(C)[nH]n2)nc(Sc2ccc(S(C)(=O)=O)cc2F)c(N)c1-c1cnn(C)c1 [Compound 102] | 840 |
| Cc1cc(Nc2nc(N(C)c3c(F)cc(S(C)(=O)=O)cc3F)nc(N3CCC[C@@H]3C#N)c2C2CC2)n[nH]1 [Compound 332] | 33 |
| Cc1cc(Nc2nc(N(C)c3ccc(S(C)(=O)=O)cc3F)cc(-c3cnn(C)c3)c2C2CC2)n[nH]1 [Compound 93] | 78 |
| Cc1cc(Nc2nc(N(C)c3c(F)cc(S(C)(=O)=O)cc3F)nc(C3CC3)c2C2CC2)n[nH]1 [Compound 138] | 160 |
| COc1c(Nc2cc(C)[nH]n2)nc(Nc2ccc(S(C)(=O)=O)cc2)nc1-c1cnn(C)c1 [Compound 37] | 550 |

Compounds with a lower IC50, results first:

| IC50 [nM] | Structure (SMILES) |
| --- | --- |
| 21 | Cc1cc(Nc2nc(N(C)c3c(F)cc(S(C)(=O)=O)cc3F)nc(N3CCn4nccc4C3)c2C2CC2)n[nH]1 [Compound 250] |
| 16 | Cc1cc(Nc2nc(N(C)c3c(F)cc(S(C)(=O)=O)cc3F)nc(-c3cnn(C)c3C(O)C(F)(F)F)c2C2CC2)n[nH]1 (centres unmarked) [Compound 305] |
| 15 | Cc1cc(Nc2nc(N(C)c3c(F)cc(S(C)(=O)=O)cc3F)nc(-c3cnn(C)c3C(C)O)c2C2CC2)n[nH]1 (centres unmarked) [Compound 312] |
| 8 | COCc1nc(-c2nc(N(C)c3c(F)cc(S(C)(=O)=O)cc3F)nc(Nc3cc(C)[nH]n3)c2C2CC2)cn1C [Compound 164] |
| 7 | Cc1cc(Nc2nc(N(C)c3c(F)cc(S(C)(=O)=O)cc3F)nc(-c3cn(CCOC(F)(F)F)c(C)n3)c2C2CC2)n[nH]1 [Compound 259] |
| 6 | Cc1cc(Nc2nc(N(C)c3c(F)cc(S(C)(=O)=O)cc3F)nc(-c3cn(CCO)nc3C)c2C2CC2)n[nH]1 [Compound 202] |
| 5 | [2H]C([2H])([2H])OCc1nc(-c2nc(N(C)c3c(F)cc(S(C)(=O)=O)cc3F)nc(Nc3cc(C)[nH]n3)c2C2CC2)cn1C [Compound 237] |
| 3 | Cc1cc(Nc2nc(N(C)c3c(F)cc(S(C)(=O)=O)cc3F)nc(-c3cn(C(C)C)cn3)c2C2CC2)n[nH]1 [Compound 137] |
| 3 | CN(c1nc(Nc2cc(C3CC3)[nH]n2)c(C2CC2)c(-c2cn(C)cn2)n1)c1c(F)cc(S(C)(=O)=O)cc1F [Compound 228, 5-cyclopropyl-N^4-(5-cyclopropyl-1H-pyrazol-3-yl)-N^2-(2,6-difluoro-4-(methylsulfonyl)phenyl)-N^2-methyl-6-(1-methyl-1H-imidazol-4-yl)pyrimidine-2,4-diamine] |
| 3 | COCc1nc(-c2nc(N(C)c3c(F)cc(S(C)(=O)=O)cc3F)nc(Nc3cc(C4CC4)[nH]n3)c2C2CC2)cn1C [Compound 272] |
| 2 | Cc1cc(Nc2nc(N(C)c3c(F)cc(S(C)(=O)=O)cc3F)nc(-c3cn(C)c(C)n3)c2C2CC2)n[nH]1 [Compound 124] |
